Here are results for 36 compounds from US20250171438A1 (Agios Pharmaceuticals, Inc., priority 2022, published 2025).

The first assay deals with T1, human PAH with the R408W mutation (Homo sapiens, UniProt P00439, R408W).
T1 construct: expressed in transfected cells
T1 sequence (P00439 1-452 R408W): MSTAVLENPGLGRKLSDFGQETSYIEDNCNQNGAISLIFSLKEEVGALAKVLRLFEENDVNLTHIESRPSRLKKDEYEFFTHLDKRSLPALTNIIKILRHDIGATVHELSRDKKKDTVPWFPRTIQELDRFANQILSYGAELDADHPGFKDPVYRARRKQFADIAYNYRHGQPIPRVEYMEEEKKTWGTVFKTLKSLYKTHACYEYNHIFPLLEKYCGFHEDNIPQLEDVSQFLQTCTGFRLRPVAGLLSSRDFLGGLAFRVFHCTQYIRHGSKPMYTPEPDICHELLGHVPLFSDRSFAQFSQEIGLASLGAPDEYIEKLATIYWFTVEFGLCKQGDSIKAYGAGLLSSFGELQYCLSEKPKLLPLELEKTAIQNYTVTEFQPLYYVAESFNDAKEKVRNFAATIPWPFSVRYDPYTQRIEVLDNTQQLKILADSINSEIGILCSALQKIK
The assay can be described thus: Cell Based Phenylalanine Flux Assay. Conditions: A375 cells expressing human R408W PAH; 24 hrs compound incubation; 13C-Tyrosine by LC-MS; average where tested multiple times; read-out: AC50.
For the compound `O=C(c1oc(C2(O)CC2)nc1C(F)(F)F)N1CCc2[nH]cnc2[C@H]1c1nc2c(F)cccc2s1` [Example 2185, (S)-(4-(4-fluorobenzo[d]thiazol-2-yl)-1,4,6,7-tetrahydro-5H-imidazo[4,5-c]pyridin-5-yl)(2-(1-hydroxycyclopropyl)-4-(trifluoromethyl)oxazol-5-yl)methanone], the concentration at half-maximal activity (AC50) was under 500 nM.

Consider `Cc1cc(C2(C(=O)N3CCc4[nH]cnc4[C@@H]3c3nc4ccccc4s3)CC2)on1` [Example 1550, (R)-(4-(benzo[d]thiazol-2-yl)-6,7-dihydro-1H-imidazo[4,5-c]pyridin-5(4H)-yl)(1-(3-methylisoxazol-5-yl)cyclopropyl)methanone], for which the AC50 lay within 1000 to 5000 nM.

`Cc1cccc2sc([C@H]3c4nc[nH]c4CCN3C(=O)c3ocnc3C(F)F)nc12` [Example 2012, (R)-(4-(difluoromethyl)oxazol-5-yl)(4-(4-methylbenzo[d]thiazol-2-yl)-6,7-dihydro-1H-imidazo[4,5-c]pyridin-5(4H)-yl)methanone]: the AC50 is 1000 to 5000 nM.

For the compound `CC(C)(O)c1nc(C2CC2)c(C(=O)N2CCc3[nH]cnc3[C@@H]2c2nc3ccccc3s2)o1` [Example 1544, (R)-(4-(benzo[d]thiazol-2-yl)-6,7-dihydro-1H-imidazo[4,5-c]pyridin-5(4H)-yl)(4-cyclopropyl-2-(2-hydroxypropan-2-yl)oxazol-5-yl)methanone], the AC50 lay within 1000 to 5000 nM.

With `O=C(CCc1nccs1)N1CCc2[nH]cnc2[C@H]1c1nc2ccc(Cl)cc2[nH]1` [Example 910, (S)-1-(4-(6-chloro-1H-benzo[d]imidazol-2-yl)-6,7-dihydro-1H-imidazo[4,5-c]pyridin-5(4H)-yl)-3-(thiazol-2-yl)propan-1-one], the AC50 is 500 to 1000 nM.

Turning to `Cc1nc(CCCN2CC(F)C2)oc1C(=O)N1CCc2[nH]cnc2[C@H]1c1nc2ccccc2s1` [Example 1671], the AC50 fell in the range of 500 to 1000 nM.

`CC(C)(O)c1ncc(C(=O)N2CCc3[nH]cnc3[C@@H]2c2nc3c(F)cccc3s2)o1` [Example 1484, (R)-(4-(4-fluorobenzo[d]thiazol-2-yl)-6,7-dihydro-1H-imidazo[4,5-c]pyridin-5(4H)-yl)(2-(2-hydroxypropan-2-yl)oxazol-5-yl)methanone]: the AC50 was in the range of 1000 to 5000 nM.

For `O=C(c1ocnc1C1CC1)N1CC2(CC2)c2[nH]cnc2[C@@H]1c1nc2ccccc2s1` [Example 1670, (R)-(4′-(benzo[d]thiazol-2-yl)spiro[cyclopropane-1,7′-imidazo[4,5-c]pyridin]-5′(1′H,4′H,6′H)-yl)(4-cyclopropyloxazol-5-yl)methanone], the AC50 lay within 1000 to 5000 nM.

As for `Cc1nc(-c2cnn(CC(F)(F)F)c2)oc1C(=O)N1CCc2[nH]cnc2[C@H]1c1nc2ccccc2s1` [Example 1413], the AC50 is under 500 nM.

For the compound `O=C(c1nnc(-c2ccc(F)cc2F)o1)N1CCc2[nH]cnc2[C@@H]1c1nc2ccccc2s1` [Example 1812, (R)-(4-(benzo[d]thiazol-2-yl)-6,7-dihydro-1H-imidazo[4,5-c]pyridin-5(4H)-yl)(5-(2,4-difluorophenyl)-1,3,4-oxadiazol-2-yl)methanone], the AC50 was in the range of 500 to 1000 nM.

As to `O=C(CC1CC1(F)F)N1CCc2[nH]cnc2[C@@H]1c1nc2ccccc2s1` (stereo partly drawn) [Example 1273, 1-((R)-4-(benzo[d]thiazol-2-yl)-6,7-dihydro-1H-imidazo[4,5-c]pyridin-5(4H)-yl)-2-(2,2-difluorocyclopropyl)ethanone], the AC50 was over 5000 nM.

On to `O=C(CC1CC1)N1CCc2[nH]cnc2[C@H]1c1nc2ccc(F)cc2[nH]1` [Example 964, (S)-2-cyclopropyl-1-(4-(6-fluoro-1H-benzo[d]imidazol-2-yl)-6,7-dihydro-1H-imidazo[4,5-c]pyridin-5(4H)-yl)ethanone], for which the half-maximal activity concentration (AC50) lay within 500 to 1000 nM.

Turning to `O=C(c1nc2cc(F)ccc2s1)N1CCc2[nH]cnc2[C@@H]1c1nc2ccccc2s1` [Example 1096, (R)-(4-(benzo[d]thiazol-2-yl)-6,7-dihydro-1H-imidazo[4,5-c]pyridin-5(4H)-yl)(5-fluorobenzo[d]thiazol-2-yl)methanone], the AC50 was over 5000 nM.

In the case of `COc1cccc(CCCC(=O)N2CCc3[nH]cnc3[C@@H]2c2nc3ccccc3s2)c1` [Example 1014, (R)-1-(4-(benzo[d]thiazol-2-yl)-6,7-dihydro-1H-imidazo[4,5-c]pyridin-5(4H)-yl)-4-(3-methoxyphenyl)butan-1-one], the AC50 is over 5000 nM.

`O=C([C@@H]1CC1(F)F)N1CCc2[nH]cnc2[C@@H]1c1nc2c(F)cccc2s1` [Example 1646, ((S)-2,2-difluorocyclopropyl)((R)-4-(4-fluorobenzo[d]thiazol-2-yl)-6,7-dihydro-1H-imidazo[4,5-c]pyridin-5(4H)-yl)methanone]: the AC50 fell in the range of 1000 to 5000 nM.

For `CC(C)(C#N)c1nc(C(F)F)c(C(=O)N2CCc3[nH]cnc3[C@H]2c2nc3c(F)cccc3s2)o1` [Example 2027], the AC50 is under 500 nM.

With `CC(C)(O)c1nc(CF)c(C(=O)N2CCc3[nH]cnc3[C@@H]2c2nc3c(F)cccc3s2)o1` [Example 2066, (R)-(4-(4-fluorobenzo[d]thiazol-2-yl)-6,7-dihydro-1H-imidazo[4,5-c]pyridin-5(4H)-yl)(4-(fluoromethyl)-2-(2-hydroxypropan-2-yl)oxazol-5-yl)methanone], the AC50 was 1000 to 5000 nM.

In the case of `O=C(c1oc(C2CC2)nc1C(F)F)N1CCc2[nH]cnc2[C@H]1c1nc2ccccc2s1` [Example 1621], the half-maximal activity concentration (AC50) is under 500 nM.

In the case of `O=C(c1nccs1)N1CCc2nc[nH]c2[C@@H]1c1nc2c(F)cccc2s1` [Example 1119, (R)-(4-(4-fluorobenzo[d]thiazol-2-yl)-6,7-dihydro-3H-imidazo[4,5-c]pyridin-5(4H)-yl)(thiazol-2-yl)methanone], the AC50 lay in the range of 1000 to 5000 nM.

Turning to `COCCc1ccc2c(C(=O)N3CCc4[nH]cnc4[C@@H]3c3nc4ccccc4s3)c(C#N)nn2c1` [Example 1868, (R)-3-(4-(benzo[d]thiazol-2-yl)-4,5,6,7-tetrahydro-1H-imidazo[4,5-c]pyridine-5-carbonyl)-6-(2-methoxyethyl)pyrazolo[1,5-a]pyridine-2-carbonitrile], the AC50 lay in the range of 1000 to 5000 nM.

With `O=C(c1ccnn1CC(F)(F)F)N1CCc2[nH]cnc2[C@@H]1c1nc2c(F)cccc2s1` [Example 1738, (R)-(4-(4-fluorobenzo[d]thiazol-2-yl)-6,7-dihydro-1H-imidazo[4,5-c]pyridin-5(4H)-yl)(1-(2,2,2-trifluoroethyl)-1H-pyrazol-5-yl)methanone], the AC50 lay within 1000 to 5000 nM.

For `CC(C)(C)CCC(=O)N1CCc2[nH]cnc2[C@H]1c1nc2ccc(Br)cc2[nH]1` [Example 942, (S)-1-(4-(6-bromo-1H-benzo[d]imidazol-2-yl)-6,7-dihydro-1H-imidazo[4,5-c]pyridin-5(4H)-yl)-4,4-dimethylpentan-1-one], the AC50 was 500 to 1000 nM.

`Cc1nc(-c2ccccn2)oc1C(=O)N1CCc2[nH]cnc2[C@H]1c1nc2c(F)cccc2s1` [Example 1445, (S)-(4-(4-fluorobenzo[d]thiazol-2-yl)-6,7-dihydro-1H-imidazo[4,5-c]pyridin-5(4H)-yl)(4-methyl-2-(pyridin-2-yl)oxazol-5-yl)methanone]: the AC50 was under 500 nM.

For the compound `C[C@H]1CN(C(=O)c2ocnc2C2CC2)[C@@H](c2nc3c(F)cccc3s2)c2nc[nH]c21` [Example 1607, (4-cyclopropyloxazol-5-yl)((4R,7S)-4-(4-fluorobenzo[d]thiazol-2-yl)-7-methyl-6,7-dihydro-1H-imidazo[4,5-c]pyridin-5(4H)-yl)methanone], the AC50 was in the range of 1000 to 5000 nM.

As for `CC(C)(F)c1ccc2c(C(=O)N3CCc4[nH]cnc4[C@@H]3c3nc4ccccc4s3)cnn2c1` [Example 1480, (R)-(4-(benzo[d]thiazol-2-yl)-6,7-dihydro-1H-imidazo[4,5-c]pyridin-5(4H)-yl)(6-(2-fluoropropan-2-yl)pyrazolo[1,5-a]pyridin-3-yl)methanone], the AC50 lay within 1000 to 5000 nM.

In the case of `O=C(CCc1nccs1)N1CCc2[nH]cnc2[C@H]1c1nc(Br)cs1` [Example 2150], the AC50 was 1000 to 5000 nM.

The assay is the same for the next values; noted with them: A375 cells expressing human R408W PAH; 24 hrs with compound; 13C-Tyrosine by LC-MS; average where tested multiple times; read-out: AC50.
On to `O=C(N1CC[C@@H](c2ccccc2)C1)N1CCc2[nH]cnc2[C@H]1c1nc2ccccc2s1` (single isomer, unassigned), for which the AC50 lay within 1000 to 5000 nM.

In the case of `O=C(Cc1cncs1)N1CCc2[nH]cnc2C1c1nc2ccccc2s1` (stereo not drawn), the AC50 is 1000 to 5000 nM.

Regarding `c1ccc2[nH]c(C3c4nc[nH]c4CCN3Cc3cncs3)nc2c1` (stereo not drawn), the AC50 was over 5000 nM.

Regarding `Cc1nc(-c2ccccn2)sc1C(=O)N1CCc2[nH]cnc2C1c1nc2ccccc2s1` (stereo not drawn), the AC50 was over 5000 nM.

`O=C(C1CC1(F)F)N1CCc2[nH]cnc2C1c1nc2c(F)cccc2s1` (stereo not drawn): the AC50 lay within 1000 to 5000 nM.

Consider `O=C(C1CN(c2ccc(Cl)cc2)C1)N1CCc2[nH]cnc2C1c1nc2ccccc2s1` (stereo not drawn), for which the AC50 was in the range of 1000 to 5000 nM.

Consider `O=C(CCc1nc2ccccc2o1)N1CCc2[nH]cnc2C1c1nc2ccccc2[nH]1` (stereo not drawn), for which the AC50 fell in the range of 1000 to 5000 nM.

Consider `O=C(c1ccc2ncsc2c1)N1CCc2[nH]cnc2C1c1nc2ccccc2[nH]1` (stereo not drawn), for which the AC50 is 1000 to 5000 nM.

Turning to `O=C(c1nncs1)N1CCc2[nH]cnc2[C@H]1c1nc2ccccc2[nH]1` (single isomer, unassigned), the AC50 lay in the range of 1000 to 5000 nM.

Regarding `Cn1cc(-c2cnc(CC(=O)N3CCc4[nH]cnc4C3c3nc4ccccc4s3)s2)cn1` (stereo not drawn), the AC50 was over 5000 nM.

For orientation: AC50 means the concentration at which the activity in the assay is half-maximal.
